Results taken from ChEMBL document CHEMBL3797081, “Application of virtual screening to the discovery of novel nicotinamide phosphoribosyltransferase (NAMPT) inhibitors with potential for the treatment of cancer and axonopathies” (Bioorg Med Chem Lett, 2016).
Calls of active or inactive are those of the source. The calls are words filed in the database; no cut-off is given here.

Legend:
[1] = molecular target: Nicotinamide phosphoribosyltransferase (Homo sapiens, UniProt P43490); test: Inhibition of human NAMPT using NAM as substrate assessed as NMN formation preincubated for 5 mins followed by substrate addition measured after 15 mins by fluorometric assay
Nicotinamide phosphoribosyltransferase, sequence (P43490 whole entry): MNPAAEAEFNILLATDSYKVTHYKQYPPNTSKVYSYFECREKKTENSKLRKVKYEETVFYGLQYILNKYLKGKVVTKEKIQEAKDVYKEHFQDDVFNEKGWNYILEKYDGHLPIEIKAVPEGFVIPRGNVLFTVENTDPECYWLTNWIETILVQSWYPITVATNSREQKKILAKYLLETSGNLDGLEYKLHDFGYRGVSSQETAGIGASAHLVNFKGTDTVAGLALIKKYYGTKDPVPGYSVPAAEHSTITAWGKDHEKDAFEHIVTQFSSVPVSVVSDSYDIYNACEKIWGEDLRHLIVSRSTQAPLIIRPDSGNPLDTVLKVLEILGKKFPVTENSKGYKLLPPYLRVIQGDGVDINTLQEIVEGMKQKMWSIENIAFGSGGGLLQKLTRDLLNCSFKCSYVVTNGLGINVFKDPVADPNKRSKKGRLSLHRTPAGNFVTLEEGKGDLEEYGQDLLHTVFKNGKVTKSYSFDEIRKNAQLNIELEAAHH

[2] = Plasma protein binding in human; assay type: ADME, cell-free; settings: read-out: PPB (converted)
CYP1A2 = molecular target: T1, CYP1A2 (Homo sapiens, UniProt P05177); test: Inhibition of CYP1A2 (unknown origin) at 3 uM relative to control; assay type: ADME
T1 sequence (P05177 whole entry): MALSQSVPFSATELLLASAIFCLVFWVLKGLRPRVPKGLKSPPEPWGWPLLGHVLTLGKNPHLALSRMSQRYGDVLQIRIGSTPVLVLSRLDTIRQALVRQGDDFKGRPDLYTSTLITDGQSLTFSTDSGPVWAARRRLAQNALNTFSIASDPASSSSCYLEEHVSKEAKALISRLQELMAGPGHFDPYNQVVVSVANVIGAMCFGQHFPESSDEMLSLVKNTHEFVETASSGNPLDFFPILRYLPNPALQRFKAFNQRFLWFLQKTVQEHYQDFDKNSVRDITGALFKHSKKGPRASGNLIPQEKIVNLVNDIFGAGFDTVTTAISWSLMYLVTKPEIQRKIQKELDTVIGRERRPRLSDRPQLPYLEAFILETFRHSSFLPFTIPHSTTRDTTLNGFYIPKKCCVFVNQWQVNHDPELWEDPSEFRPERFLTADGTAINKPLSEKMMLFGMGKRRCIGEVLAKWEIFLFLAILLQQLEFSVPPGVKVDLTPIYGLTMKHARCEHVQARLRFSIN

[3] = Metabolic stability in mouse liver microsomes assessed as parent compound remaining at 5 uM measured at 30 mins in absence of NADPH; assay type: ADME; settings: read-out: Stability
[4] = Permeability across human Caco2 cells assessed as drug recovery; assay type: ADME, cell-based; settings: Caco-2, read-out: Drug recovery
[5] = Metabolic stability in mouse liver microsomes assessed as parent compound remaining at 5 uM measured at 30 mins in presence of NADPH; assay type: ADME; settings: read-out: Stability
CYP2C9 = CYP2C9 (Homo sapiens, UniProt P11712); test: Inhibition of CYP2C9 (unknown origin) at 3 uM relative to control; assay type: ADME
CYP2C9, sequence (P11712 whole entry): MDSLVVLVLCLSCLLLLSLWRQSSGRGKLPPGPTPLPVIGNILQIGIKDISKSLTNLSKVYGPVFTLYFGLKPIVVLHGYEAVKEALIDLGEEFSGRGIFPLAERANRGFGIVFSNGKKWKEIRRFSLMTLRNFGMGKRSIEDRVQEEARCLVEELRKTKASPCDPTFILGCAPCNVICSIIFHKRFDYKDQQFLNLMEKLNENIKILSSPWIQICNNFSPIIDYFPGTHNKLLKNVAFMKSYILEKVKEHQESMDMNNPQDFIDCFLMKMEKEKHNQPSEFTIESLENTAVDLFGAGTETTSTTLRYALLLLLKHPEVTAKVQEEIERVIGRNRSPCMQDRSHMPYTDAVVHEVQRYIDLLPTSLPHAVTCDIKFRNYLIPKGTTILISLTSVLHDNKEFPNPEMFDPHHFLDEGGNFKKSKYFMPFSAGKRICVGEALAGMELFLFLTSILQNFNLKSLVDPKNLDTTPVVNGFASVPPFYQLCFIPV

CYP3A4 = CYP3A4 (Homo sapiens, UniProt P08684); test: Inhibition of CYP3A4 (unknown origin) at 3 uM relative to control; assay type: ADME
CYP3A4, sequence (P08684 whole entry): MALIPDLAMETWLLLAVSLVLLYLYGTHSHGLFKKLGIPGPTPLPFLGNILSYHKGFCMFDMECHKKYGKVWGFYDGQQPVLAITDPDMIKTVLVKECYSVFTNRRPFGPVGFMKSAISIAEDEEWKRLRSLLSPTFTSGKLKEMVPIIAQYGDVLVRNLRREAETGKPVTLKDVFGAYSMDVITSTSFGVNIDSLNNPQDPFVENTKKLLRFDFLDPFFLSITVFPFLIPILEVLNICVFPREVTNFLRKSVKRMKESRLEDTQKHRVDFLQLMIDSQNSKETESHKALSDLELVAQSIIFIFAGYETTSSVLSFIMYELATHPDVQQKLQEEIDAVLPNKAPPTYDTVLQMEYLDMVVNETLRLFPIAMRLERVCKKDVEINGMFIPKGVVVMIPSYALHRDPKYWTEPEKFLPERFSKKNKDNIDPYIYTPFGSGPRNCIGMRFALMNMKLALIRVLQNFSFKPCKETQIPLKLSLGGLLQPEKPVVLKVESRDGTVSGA

[6] = Metabolic stability in human liver microsomes assessed as parent compound remaining at 5 uM measured at 30 mins in absence of NADPH; assay type: ADME; settings: read-out: Stability
[7] = Metabolic stability in human liver microsomes assessed as parent compound remaining at 5 uM measured at 30 mins in presence of NADPH; assay type: ADME; settings: read-out: Stability
[8] = molecular target: Nicotinamide phosphoribosyltransferase (Mus musculus) (UniProt Q99KQ4); test: Inhibition of NAMPT in neonatal mouse superior cervical ganglion explant assessed as delay in degeneration of injured axons at 1 uM treated <10 mins prior to axon transection meaured at 8 hrs by phase contrast microscopy; assay type: tissue-based
Nicotinamide phosphoribosyltransferase (Mus musculus), sequence (Q99KQ4 whole entry, looked up): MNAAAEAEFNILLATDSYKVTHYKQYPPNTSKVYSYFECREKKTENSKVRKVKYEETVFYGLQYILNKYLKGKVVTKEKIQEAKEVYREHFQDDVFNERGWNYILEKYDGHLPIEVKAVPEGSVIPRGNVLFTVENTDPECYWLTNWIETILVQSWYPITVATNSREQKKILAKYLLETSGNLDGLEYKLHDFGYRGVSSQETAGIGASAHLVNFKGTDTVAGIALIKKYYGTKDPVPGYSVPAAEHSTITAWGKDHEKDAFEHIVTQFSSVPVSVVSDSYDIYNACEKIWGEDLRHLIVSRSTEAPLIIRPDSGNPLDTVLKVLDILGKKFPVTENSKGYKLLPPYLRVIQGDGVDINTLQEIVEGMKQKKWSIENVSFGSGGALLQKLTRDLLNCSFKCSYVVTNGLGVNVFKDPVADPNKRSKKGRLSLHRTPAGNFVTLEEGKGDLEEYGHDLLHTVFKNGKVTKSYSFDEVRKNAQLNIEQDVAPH

CYP2D6 = CYP2D6 (Homo sapiens, UniProt P10635); test: Inhibition of CYP2D6 (unknown origin) at 3 uM relative to control; assay type: ADME
CYP2D6, sequence (P10635 whole entry): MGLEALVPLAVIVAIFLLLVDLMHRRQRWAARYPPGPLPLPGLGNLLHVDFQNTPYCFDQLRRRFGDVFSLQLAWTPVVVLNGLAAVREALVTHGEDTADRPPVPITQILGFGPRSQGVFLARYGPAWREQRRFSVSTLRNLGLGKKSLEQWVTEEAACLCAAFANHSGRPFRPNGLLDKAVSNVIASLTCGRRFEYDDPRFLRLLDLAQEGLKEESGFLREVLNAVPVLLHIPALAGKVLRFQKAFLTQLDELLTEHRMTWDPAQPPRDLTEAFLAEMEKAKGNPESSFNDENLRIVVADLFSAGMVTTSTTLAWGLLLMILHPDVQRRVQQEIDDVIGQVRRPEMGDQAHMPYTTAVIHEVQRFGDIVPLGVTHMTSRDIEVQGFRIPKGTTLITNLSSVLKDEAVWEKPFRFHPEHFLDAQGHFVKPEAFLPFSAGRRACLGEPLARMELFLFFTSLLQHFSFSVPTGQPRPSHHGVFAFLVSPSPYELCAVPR

[9] = molecular target: Nicotinamide phosphoribosyltransferase (Mus musculus) (UniProt Q99KQ4); settings: Superior cervical ganglion, 100 nM
Description: Inhibition of NAMPT in neonatal mouse superior cervical ganglion explant assessed as delay in degeneration of injured axons at 100 nM treated <10 mins prior to axon transection meaured at 8 to 24 hrs by phase contrast microscopy

**Q.** For `O=C(COc1ccc(S(=O)(=O)Nc2ccc(Cl)cc2)cc1)NCc1cccnc1`, which IC50 [1] is on record?
**A.** 1900 nM

**Q.** With `O=C(NCCOc1ccc2ccccc2c1)NCc1cccnc1` as the compound, how does the IC50 [1] read?
**A.** 5000 nM

**Q.** For `O=C(c1cc(-c2cccnc2)[nH]n1)N1CCN(C(c2ccccc2)c2ccccc2)CC1`, which IC50 [1] is on record?
**A.** 243 nM

**Q.** What about the fraction unbound [2] of the same compound?
**A.** 0.004

**Q.** And the inhibition at 3 µM (CYP1A2)?
**A.** 23%

**Q.** And the remaining at 0.5 h, 5 µM [3]?
**A.** 96%

**Q.** What about the recovery [4] of the same compound?
**A.** < 70%

**Q.** And the remaining at 0.5 h, 5 µM [5]?
**A.** 19%

**Q.** And the inhibition at 3 µM (CYP2C9)?
**A.** 43%

**Q.** What about the inhibition at 3 µM (CYP3A4) of the same compound?
**A.** 20%

**Q.** And the remaining at 0.5 h, 5 µM [6]?
**A.** 104%

**Q.** What about the remaining at 0.5 h, 5 µM [7] of the same compound?
**A.** 63%

**Q.** And the inhibition [8]?
**A.** Active

**Q.** And the inhibition at 3 µM (CYP2D6)?
**A.** 3%

**Q.** Which IC50 [1] does the source give for `O=C(/C=C/c1cccnc1)N1CCN(Cc2ccc(OC(F)(F)F)cc2)CC1` here?
**A.** 780 nM

**Q.** For `O=C(/C=C/c1cccnc1)N1CCN(Cc2csc(-c3ccc(F)cc3)n2)CC1`, which IC50 [1] is on record?
**A.** 3200 nM

**Q.** With `O=C(NCc1cccnc1)c1cc2n(n1)CCN(Cc1ccc(Cl)c(Cl)c1)C2=O` as the compound, how does the IC50 [1] read?
**A.** 320 nM

**Q.** Which IC50 [1] does the source give for `O=C(/C=C/c1cccnc1)Nc1ccc(C(=O)NCC(F)(F)F)cc1` here?
**A.** 220 nM

**Q.** For `O=C(/C=C/c1cccnc1)Nc1ccc(-c2nnc3n2CCCCC3)cc1`, which IC50 [1] is on record?
**A.** 670 nM

**Q.** Which IC50 [1] does the source give for `CCCCc1ccc(NC(=O)C2CC2c2cccnc2)cc1` (stereo not drawn) here?
**A.** 41.8 nM

**Q.** And the fraction unbound [2]?
**A.** 0.008

**Q.** And the inhibition at 3 µM (CYP1A2)?
**A.** 22%

**Q.** What about the remaining at 0.5 h, 5 µM [3] of the same compound?
**A.** 87%

**Q.** What about the recovery [4] of the same compound?
**A.** < 70%

**Q.** And the remaining at 0.5 h, 5 µM [5]?
**A.** 43%

**Q.** And the inhibition at 3 µM (CYP2C9)?
**A.** 31%

**Q.** What about the inhibition at 3 µM (CYP3A4) of the same compound?
**A.** 63%

**Q.** What about the remaining at 0.5 h, 5 µM [6] of the same compound?
**A.** 96%

**Q.** What about the remaining at 0.5 h, 5 µM [7] of the same compound?
**A.** 7%

**Q.** And the inhibition at 3 µM (CYP2D6)?
**A.** 1%

**Q.** With `O=C(c1cc(-c2cccnc2)n[nH]1)N1CCN(C(=O)c2cc3ccccc3[nH]2)CC1` as the compound, how does the IC50 [1] read?
**A.** 3800 nM

**Q.** With `O=C(/C=C/c1cccnc1)NCCCCC1CCN(C(=O)c2ccccc2)CC1` as the compound, how does the inhibition [9] read?
**A.** Active

**Q.** With `CC1(C)Cc2cccc(OCCNC(=O)/C=C/c3cccnc3)c2O1` as the compound, how does the IC50 [1] read?
**A.** 940 nM
